Laboratory results published in patent publication US8299111B2, “Compounds which modulate the CB2 receptor” (Boehringer Ingelheim International GmbH, priority 2006, dated 2012).

Target: T1, human CB2R (Homo sapiens, UniProt P34972)
T1 construct: host or cells: CHO cells
Assay: CB2R mediated modulation of cAMP synthesis
Assay type: cell-based
Conditions: found through the use of the above described assays (binding and cAMP); CHO cells expressing human CB2R, forskolin-stimulated cAMP
Method in brief: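 EC50 values reflect inhibition of cAMP made in response to 10 uM forskolin (with 1 mM IBMX, 0.25% BSA) over 30 min at 37 °C in human CB2R-expressing CHO cells. The window runs from forskolin alone to 1 uM CP55940; curves fitted with a four-parameter logistic model.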

T1 sequence (P34972 whole entry): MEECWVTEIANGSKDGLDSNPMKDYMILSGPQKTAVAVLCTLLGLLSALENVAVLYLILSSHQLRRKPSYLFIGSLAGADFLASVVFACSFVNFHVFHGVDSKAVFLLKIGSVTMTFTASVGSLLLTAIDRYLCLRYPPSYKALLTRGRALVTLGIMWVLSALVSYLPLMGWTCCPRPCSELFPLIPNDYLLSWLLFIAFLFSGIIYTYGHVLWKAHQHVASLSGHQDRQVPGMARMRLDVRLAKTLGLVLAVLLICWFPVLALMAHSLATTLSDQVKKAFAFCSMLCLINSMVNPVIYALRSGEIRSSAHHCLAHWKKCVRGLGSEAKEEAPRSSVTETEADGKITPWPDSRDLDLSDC

Structure (SMILES) | agonistic activity
COc1ccc(S(=O)(=O)C(C)(C)C(=O)Nc2cc(C(C)(C)C)on2)cn1 [N-(5-tert-Butyl-isoxazol-3-yl)-2-(6-methoxy-pyridine-3-sulfonyl)-2-methyl-propionamide] | agonistic activity
CC(C)(C)c1cc(NC(=O)C(C)(C)S(=O)(=O)c2cccc(OC(F)(F)F)c2)no1 [N-(5-tert-Butyl-isoxazol-3-yl)-2-methyl-2-(3-trifluoromethoxy-benzenesulfonyl)-propionamide] | agonistic activity
CC(C)(C)c1cc(NC(=O)C(C)(C)S(=O)(=O)c2cccc(C(F)(F)F)c2)no1 [N-(5-tert-Butyl-isoxazol-3-yl)-2-methyl-2-(3-trifluoromethyl-benzenesulfonyl)-propionamide] | agonistic activity
CC(C)(C)c1cc(NC(=O)C(C)(C)S(=O)(=O)c2ccc(C(F)(F)F)cc2)no1 [N-(5-tert-Butyl-isoxazol-3-yl)-2-methyl-2-(4-trifluoromethyl-benzenesulfonyl)-propionamide] | agonistic activity
CC(C)(C)c1cc(NC(=O)C(C)(C)S(=O)(=O)c2ccc(C(F)(F)F)cn2)no1 [N-(5-tert-Butyl-isoxazol-3-yl)-2-methyl-2-(5-trifluoromethyl-pyridine-2-sulfonyl)-propionamide] | agonistic activity
Cc1ccc(S(=O)(=O)C(C)(C)C(=O)Nc2cc(C(C)(C)C)on2)cn1 [N-(5-tert-Butyl-isoxazol-3-yl)-2-methyl-2-(6-methyl-pyridine-3-sulfonyl)-propionamide] | agonistic activity
CC(C)(C)c1cc(NC(=O)C(C)(C)S(=O)(=O)c2ccc(C(F)(F)F)nc2)no1 [N-(5-tert-Butyl-isoxazol-3-yl)-2-methyl-2-(6-trifluoromethyl-pyridine-3-sulfonyl)-propionamide] | agonistic activity
CC(C)(C)c1cc(NC(=O)C(C)(C)S(=O)(=O)c2ccc3ccccc3c2)no1 [N-(5-tert-Butyl-isoxazol-3-yl)-2-methyl-2-(naphthalene-2-sulfonyl)-propionamide] | agonistic activity
CC(C)(C)c1cc(NC(=O)C(C)(C)S(=O)(=O)c2ccccn2)no1 [N-(5-tert-Butyl-isoxazol-3-yl)-2-methyl-2-(pyridine-2-sulfonyl)-propionamide] | agonistic activity
CC(C)(C)c1cc(NC(=O)C(C)(C)S(=O)(=O)c2cccnc2)no1 [N-(5-tert-Butyl-isoxazol-3-yl)-2-methyl-2-(pyridine-3-sulfonyl)-propionamide] | agonistic activity
CC(C)(C)c1cc(NC(=O)C(C)(C)S(=O)(=O)c2cccc3cccnc23)no1 [N-(5-tert-Butyl-isoxazol-3-yl)-2-methyl-2-(quinoline-8-sulfonyl)-propionamide] | agonistic activity
CC(C)(C)c1cc(NC(=O)C(C)(C)S(=O)(=O)c2cccs2)no1 [N-(5-tert-Butyl-isoxazol-3-yl)-2-methyl-2-(thiophene-2-sulfonyl)-propionamide] | agonistic activity
CC(C)(C)c1cc(NC(=O)C(C)(C)S(=O)(=O)c2ccsc2)no1 [N-(5-tert-Butyl-isoxazol-3-yl)-2-methyl-2-(thiophene-3-sulfonyl)-propionamide] | agonistic activity
Cc1ccc(S(=O)(=O)C(C)(C)C(=O)Nc2cc(C(C)(C)C)on2)cc1 [N-(5-tert-Butyl-isoxazol-3-yl)-2-methyl-2-(toluene-4-sulfonyl)-propionamide] | agonistic activity
CC(C)C(C(=O)Nc1cc(C(C)(C)C)on1)S(=O)(=O)c1ccc(C(F)(F)F)cc1 (stereo not shown) [N-(5-tert-Butyl-isoxazol-3-yl)-3-methyl-2-(4-trifluoromethyl-benzenesulfonyl)-butyramide] | agonistic activity
CC(C)C(C(=O)Nc1cc(C(C)(C)C)on1)S(=O)(=O)c1ccc(C(F)(F)F)cn1 (stereo not shown) [N-(5-tert-Butyl-isoxazol-3-yl)-3-methyl-2-(5-trifluoromethyl-pyridine-2-sulfonyl)-butyramide] | agonistic activity
CC(C)(C)c1cnc(NC(=O)C(C)(C)S(=O)(=O)c2ccc(Cl)cc2)s1 [N-(5-tert-Butyl-thiazol-2-yl)-2-(4-chloro-benzenesulfonyl)-2-methyl-propionamide] | agonistic activity

Structure (SMILES) | agonistic activity
CC(C)(C)c1nnc(NC(=O)C(C)(C)S(=O)(=O)c2ccc(F)cc2F)s1 [N-(5-tert-butyl-1,3,4-thiadiazol-2-yl)-2-[(2,4-difluorophenyl)sulfonyl]-2-methylpropanamide] | agonistic activity
CC(C)(C)c1nnc(NC(=O)C(C)(C)S(=O)(=O)c2ccc(Cl)cc2F)s1 [N-(5-tert-butyl-1,3,4-thiadiazol-2-yl)-2-[(4-chloro-2-fluorophenyl)sulfonyl]-2-methylpropanamide] | agonistic activity
CC(C)(C)c1nnc(NC(=O)C(C)(C)S(=O)(=O)c2ccc(C(F)(F)F)nc2)s1 [N-(5-tert-butyl-1,3,4-thiadiazol-2-yl)-2-methyl-2-{[6-(trifluoromethyl)pyridin-3-yl]sulfonyl}propanamide] | agonistic activity
CC(C)(C(=O)Nc1noc2ccccc12)S(=O)(=O)c1ccc(Cl)cc1 [N-Benzo[d]isoxazol-3-yl-2-(4-chloro-benzenesulfonyl)-2-methyl-propionamide] | agonistic activity
CC(C)(C(=O)Nc1nc2ccccc2o1)S(=O)(=O)c1ccc(Cl)cc1 [N-Benzooxazol-2-yl-2-(4-chloro-benzenesulfonyl)-2-methyl-propionamide] | agonistic activity
CC(C)(C(=O)Nc1nc2ccccc2s1)S(=O)(=O)c1ccc(Cl)cc1 [N-Benzothiazol-2-yl-2-(4-chloro-benzenesulfonyl)-2-methyl-propionamide] | agonistic activity
COc1ccc(S(=O)(=O)C(C)(C)C(=O)Nc2cc(CC(C)(C)C)no2)cc1 [N-[3-(2,2-dimethylpropyl)isoxazol-5-yl]-2-[(4-methoxyphenyl)sulfonyl]-2-methylpropanamide] | agonistic activity
CC(C)(C)Cc1cc(NC(=O)C(C)(C)S(=O)(=O)c2ccc(S(C)(=O)=O)cc2)on1 [N-[3-(2,2-dimethylpropyl)isoxazol-5-yl]-2-methyl-2-{[4-(methylsulfonyl)phenyl]sulfonyl}propanamide] | agonistic activity
CC(C)(C)Cc1cc(NC(=O)C(C)(C)S(=O)(=O)c2ccc(C(F)(F)F)nc2)on1 [N-[3-(2,2-dimethylpropyl)isoxazol-5-yl]-2-methyl-2-{[6-(trifluoromethyl)pyridin-3-yl]sulfonyl}propanamide] | agonistic activity
CC(C)(C(=O)Nc1nc(-c2ccc(Cl)cc2)cs1)S(=O)(=O)c1ccc(F)cc1F [N-[4-(4-Chloro-phenyl)-thiazol-2-yl]-2-(2,4-difluoro-benzenesulfonyl)-2-methyl-propionamide] | agonistic activity
COc1ccc(S(=O)(=O)C(C)(C)C(=O)Nc2nc(-c3ccc(Cl)cc3)cs2)cc1 [N-[4-(4-Chloro-phenyl)-thiazol-2-yl]-2-(4-methoxy-benzenesulfonyl)-2-methyl-propionamide] | agonistic activity
Cc1ccc(S(=O)(=O)C(C)(C)C(=O)Nc2nc(-c3ccc(Cl)cc3)cs2)cc1 [N-[4-(4-Chloro-phenyl)-thiazol-2-yl]-2-methyl-2-(toluene-4-sulfonyl)-propionamide] | agonistic activity
CC(C)(C(=O)Nc1nc(-c2ccc(Cl)cc2)cs1)S(=O)(=O)c1ccc(S(C)(=O)=O)cc1 [N-[4-(4-chlorophenyl)-1,3-thiazol-2-yl]-2-methyl-2-{[4-(methylsulfonyl)phenyl]sulfonyl}propanamide] | agonistic activity
CC(C)(C(=O)Nc1nc(-c2ccc(Cl)cc2)cs1)S(=O)(=O)c1ccc(C(F)(F)F)nc1 [N-[4-(4-chlorophenyl)-1,3-thiazol-2-yl]-2-methyl-2-{[6-(trifluoromethyl)pyridin-3-yl]sulfonyl}propanamide] | agonistic activity
CC(C)(C(=O)Nc1ncc(-c2ccc(F)c(F)c2)s1)S(=O)(=O)c1ccc(F)cc1 [N-[5-(3,4-Difluoro-phenyl)-thiazol-2-yl]-2-(4-fluoro-benzenesulfonyl)-2-methyl-propionamide] | agonistic activity
CC(C)(C(=O)Nc1cc2ccccc2cn1)S(=O)(=O)c1ccc(C(F)(F)F)nc1 [N-isoquinolin-3-yl-2-methyl-2-{[6-(trifluoromethyl)pyridin-3-yl]sulfonyl}propanamide] | agonistic activity
CCOC(=O)c1sc(NC(=O)C(C)(C)S(=O)(=O)c2ccc(Cl)cc2)nc1C(F)(F)F [ethyl 2-({2-[(4-chlorophenyl)sulfonyl]-2-methylpropanoyl}amino)-4-(trifluoromethyl)-1,3-thiazole-5-carboxylate] | agonistic activity
